# From PubChem BioAssay (NCI)
#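 48-hour exposure; five concentrations; linearly interpolated endpoints. At the TGI there is no net growth.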
# Experiments:
# Test in all cases: NCI tumour cell line growth inhibition, 48 h
# NCI/ADR-RES ovarian = test system: NCI/ADR-RES ovarian
# SNB-75 CNS = test system: SNB-75 CNS
# OVCAR-5 ovarian = test system: OVCAR-5 ovarian
# T-47D breast = test system: T-47D breast
# SF-268 CNS = test system: SF-268 CNS
# CAKI-1 renal = test system: CAKI-1 renal
# UACC-62 melanoma = test system: UACC-62 melanoma
# LOX IMVI melanoma = test system: LOX IMVI melanoma
Compound,TGI (NCI/ADR-RES ovarian),TGI (SNB-75 CNS),TGI (OVCAR-5 ovarian),TGI (T-47D breast),TGI (SF-268 CNS),TGI (CAKI-1 renal),TGI (UACC-62 melanoma),TGI (LOX IMVI melanoma)
C=CC[C@]12C=C(OC)[C@@H](O)[C@](OC)(C(c3cc(OC)c4c(c3)OCO4)[C@H]1C)[C@H]2OC(C)=O (stereo partly drawn),> 100 µM,> 100 µM,> 100 µM,> 100 µM,> 100 µM,> 100 µM,> 100 µM,–
Cn1c2ccccc2c(=NNc2cccc(C(=O)O)c2)c2ccccc21,67.7 µM,54 µM,41.6 µM,40.9 µM,39 µM,73.3 µM,39.8 µM,17.9 µM
CC(C)NC(=O)OCCN=c1c2ccccc2ccc2ccccc12,> 100 µM,> 100 µM,> 100 µM,67.6 µM,> 100 µM,> 100 µM,> 100 µM,> 100 µM
Cn1c2ccccc2c(=O)c2cccc(C(=O)NC(CCCN=C(N)N)C(=O)O)c21 (stereo not drawn),96 µM,> 100 µM,> 100 µM,> 100 µM,> 100 µM,–,> 100 µM,> 100 µM
CC(C)(Cl)C(Br)CCC(=CCCl)CBr (mixture of isomers),24.3 µM,8.18 µM,21.4 µM,–,4.21 µM,–,5.41 µM,–
Nc1ccc(S(=O)(=O)Nc2nccs2)cc1,> 100 µM,> 100 µM,> 100 µM,> 100 µM,> 100 µM,–,> 100 µM,> 100 µM
O=C(O)/C=c1/c2ccccc2n2nc3ccccc3c12,81 µM,–,> 100 µM,> 100 µM,> 100 µM,> 100 µM,43.5 µM,78 µM
COc1cccc(/C=N/n2c(C)n[nH]c2=O)c1,> 100 µM,> 100 µM,> 100 µM,> 100 µM,> 100 µM,> 100 µM,> 100 µM,–
NNC(=O)CSc1nc2ccccc2c(=O)n1N,> 100 µM,33 µM,> 100 µM,> 100 µM,> 100 µM,> 100 µM,> 100 µM,> 100 µM
CN1COCc2c1ccc1cc3ccc4c(c3nc21)COCN4S(C)(=O)=O,> 100 µM,67.5 µM,> 100 µM,> 100 µM,> 100 µM,> 100 µM,> 100 µM,> 100 µM
O=C(O)c1ccc(OCc2nc3cc(C(F)(F)F)ccc3nc2-c2ccccc2)cc1,> 100 µM,98.7 µM,> 100 µM,> 100 µM,> 100 µM,19.6 µM,> 100 µM,> 100 µM
C=C1CN2CC(=C)CN(C1)CS(=O)(=O)N1CC(=C)CN(CC(=C)C1)S(=O)(=O)N1CC(=C)CN(CC(=C)C1)S(=O)(=O)C2,> 100 µM,–,> 100 µM,–,> 100 µM,> 100 µM,> 100 µM,> 100 µM
COc1ccc(C2OC(c3ccncc3)=NN2C)cc1OC (stereo not drawn),> 100 µM,–,> 100 µM,> 100 µM,> 100 µM,> 100 µM,> 100 µM,> 100 µM
CCCCN=C(c1ccccc1)N1CCOCC1,> 100 µM,83.5 µM,> 100 µM,–,> 100 µM,> 100 µM,> 100 µM,> 100 µM
CC(C)(C)C(=O)CC1=Nc2ccccc2SC1(O)CC(=O)C(C)(C)C (stereo not drawn),66.8 µM,–,69 µM,67.8 µM,81.1 µM,56.8 µM,31.3 µM,49.4 µM
O=C1O[C@H](c2ccc3c(c2)OCO3)[C@H]2CO[C@@H](c3ccc4c(c3)OCO4)[C@@H]12,> 100 µM,–,> 100 µM,–,> 100 µM,> 100 µM,> 100 µM,> 100 µM
C=C1C(=O)C=C[C@]2(C)CC[C@H]3C(=C)C(=O)O[C@@H]3[C@@H]12,7.02 µM,–,3 µM,20.7 µM,11.7 µM,8.53 µM,4.29 µM,3.94 µM
Cc1ccc(S(=O)(=O)NC(=O)N[C@@H](Cc2cnc[nH]2)C(=O)O)cc1,> 100 µM,> 100 µM,> 100 µM,> 100 µM,> 100 µM,–,> 100 µM,> 100 µM
CN1[C@@H]2C[C@@H](OC(=O)[C@H](CO)c3ccccc3)C[C@H]1[C@@H]1O[C@@H]12,> 100 µM,–,> 100 µM,> 100 µM,–,> 100 µM,> 100 µM,> 100 µM
Nc1[nH]nc2nc3ccc(C(F)(F)F)cc3nc12,> 100 µM,41.3 µM,99.2 µM,–,> 100 µM,> 100 µM,69.1 µM,50.8 µM
CCNC(=O)Nc1cccc(NC(=O)NCC)n1,–,> 100 µM,> 100 µM,> 100 µM,> 100 µM,> 100 µM,> 100 µM,–
COc1cc(OC)c(C2c3cc4c(cc3OC(N3CCCC3)C2C)OCO4)c(OC)c1 (stereo not drawn),67 µM,–,69 µM,> 100 µM,40.3 µM,–,69.6 µM,28.4 µM
Cc1ccc(O)c(-c2cscn2)c1,> 100 µM,–,> 100 µM,–,–,> 100 µM,> 100 µM,> 100 µM
CC(C)=CCNc1ncnc2c1ncn2CCC#N,> 100 µM,> 100 µM,> 100 µM,> 100 µM,> 100 µM,–,> 100 µM,> 100 µM
CSc1ncnc2c1ncn2CCC#N,> 100 µM,> 100 µM,> 100 µM,–,> 100 µM,> 100 µM,–,> 100 µM
CC1CCCC(CC(=O)O)(CC(=O)O)C1 (stereo not drawn),> 100 µM,–,> 100 µM,–,> 100 µM,> 100 µM,> 100 µM,> 100 µM
COc1ccc2c(cnc3c4cc(OC)c(OC)cc4ccc23)c1,> 100 µM,–,> 100 µM,> 100 µM,> 100 µM,> 100 µM,> 100 µM,> 100 µM
CCOC(=O)C1C2CCC1CC(=NNc1ccc([N+](=O)[O-])cc1[N+](=O)[O-])C2 (stereo not drawn),> 50 µM,> 50 µM,> 50 µM,–,> 50 µM,> 50 µM,> 50 µM,> 50 µM
COC(=O)C1CCCN1C(=O)C(Cc1cn(S(=O)(=O)c2ccc(C)cc2)cn1)NC(=O)OC(C)(C)C (stereo not drawn),–,> 100 µM,> 100 µM,–,–,–,> 100 µM,–
